Assays:
Enterococcus = assay: culture and susceptibility results of anal swab specimens (VRE screen media); type: cell-based
Description: An additional 56 specimens obtained from anal swabs were analyzed using the LIGHTCYCLER™ assay and were compared to a culture method using a VRE screen media. The anal swabs were prepared for amplification as described above. The LIGHTCYCLER™ assay detected more positive specimens than did culture, and is therefore more sensitive than culture. A high rate of false negative results from rectal swab culture has been previously confirmed in the literature (Clin. Infect. Dis., 2002, 34:167–172).

[1] = tested on: clinical isolates of Enterococcus; assay: agar dilution antimicrobial susceptibility testing (MIC) of clinical isolates of Enterococcus; type: cell-based
Description: One hundred clinical isolates of Enterococcus (E. casseliflavus/flavescens [n=10], E. faecalis [n=34], E. faecium [n=43], E. avium [n=1], E. gallinarum [n=11], and E. raffinosus [n=1]) were grown on blood agar plates and evaluated for the presence of vanA, vanB, and vanB 2/3 genes using a rapid LIGHTCYCLER™ vancomycin-resistant enteroccoci assay. The LIGHTCYCLER™ vancomycin-resistant enteroccoci assay differentiates the three van genes based on the temperature range over which hybridization probes melt from the target DNA (e.g., as determined by a melting curve). […] The MIC values for all of the other isolates were susceptible to vancomycin at ≦8 μg/ml.

[2] = tested on: vanA strains of vancomycin-resistant enterococci; conditions: cited from earlier work; for glycopeptide resistance phenotype: vanA phenotype
[3] = tested on: vanC phenotype of vancomycin-resistant enterococci; conditions: cited from earlier work
[4] = tested on: Enterococcus isolates from anal swabs; assay: MIC of isolates cultured from anal swabs of hospitalized patients; type: cell-based
Description: Four hundred ninety seven anal swabs collected from hospitalized patients were evaluated for the presence of vanA, vanB and vanB-2/3 genes by the LIGHTCYCLER™ vancomycin-resistant enterococci assay and by conventional culture methods. 482 of the 497 specimens were negative for the van genes and 12 were positive (9 vanA; 0 vanB; 3 vanB-2/3) by the LIGHTCYCLER™ vancomycin-resistant enterococci assay and the conventional culture screen using an 8 μg/ml Enterococcosel plate. […] The MIC values for all of the other isolates were susceptible to vancomycin at ≦8 μg/ml. An additional 21 specimens (4 vanA; 5 vanB; 12 vanB-2/3) were positive by the LIGHTCYCLER™ vancomycin-resistant enterococci assay but were negative by culture. Three of these patient specimens were culture positive with a repeat swab collection. Six of the positive specimens were separate specimens from the same patients. Due to the large number of vanB genotypes missed by culture and picked up with the LIGHTCYCLER™ vancomycin-resistant enterococci assay, the concentration of vancomycin in the Enterococcesel plates was decreased to 6 μg/ml, which is the usual laboratory standard (Manual of Clinical Microbiology, 7th Ed., 1999).

[5] = tested on: vanB strains of vancomycin-resistant enterococci; conditions: vanB phenotypes (vanB, vanB-2/3); cited from earlier work
[6] = Enterococcus cultured from anal swab specimen #52 (LightCycler VanA)
[7] = Enterococcus cultured from anal swab specimen #235 (LightCycler VanA)
[8] = Enterococcus cultured from anal swab specimen #244 (LightCycler VanA)
[9] = Enterococcus cultured from anal swab specimen #279 (LightCycler VanB-2/3)
[10] = Enterococcus cultured from anal swab specimen #286 (LightCycler VanB-2/3 weak)
[11] = Enterococcus cultured from anal swab specimen #296 (LightCycler Negative)
[12] = Enterococcus cultured from anal swab specimen #304 (LightCycler Negative)
[13] = Enterococcus cultured from anal swab specimen #419 (LightCycler VanA)
[14] = Enterococcus cultured from anal swab specimen #425 (LightCycler Negative)

Row | Molecule | Susceptibility Results (Enterococcus; [6]) | Susceptibility Results (Enterococcus; [7]) | Susceptibility Results (Enterococcus; [8]) | Susceptibility Results (Enterococcus; [9]) | Susceptibility Results (Enterococcus; [10]) | Susceptibility Results (Enterococcus; [11]) | Susceptibility Results (Enterococcus; [12]) | Susceptibility Results (Enterococcus; [13]) | Susceptibility Results (Enterococcus; [14]) | MIC ([1]; all of the other isolates (van gene negative), susceptible) [µg/mL] | MIC ([1]; vanA, vanB, and vanB-2/3 positive isolates (43 of 100 clinical isolates), all resistant) [µg/mL] | glycopeptide resistance phenotype [2] | minimum inhibitory concentration (MIC) ([2]; vanA strains, typical level) [µg/mL] | glycopeptide resistance phenotype [3] | MIC ([4]; all of the other isolates from anal swabs, susceptible) [µg/mL] | MIC ([4]; vanA and vanB positive isolates from anal swabs, all resistant) [µg/mL] | glycopeptide resistance phenotype [5]
1 | CC1(C)S[C@@H]2[C@H](NC(=O)[C@H](N)c3ccccc3)C(=O)N2[C@H]1C(=O)O [Amp, Ampicillan] | S | Amp, Van, Pen, Gent = R | R | R | Amp, Van, Pen, Gent = S | Amp, Van, Pen, Gent = S | S | R | S | – | – | – | – | – | – | – | –
2 | CN[C@H](CC(C)C)C(=O)N[C@H]1C(=O)N[C@@H](CC(N)=O)C(=O)N[C@H]2C(=O)N[C@H]3C(=O)N[C@H](C(=O)N[C@H](C(=O)O)c4cc(O)cc(O)c4-c4cc3ccc4O)[C@H](O)c3ccc(c(Cl)c3)Oc3cc2cc(c3O[C@@H]2O[C@H](CO)[C@@H](O)[C@H](O)[C@H]2O[C@H]2C[C@](C)(N)[C@H](O)[C@H](C)O2)Oc2ccc(cc2Cl)[C@H]1O [vancomycin] | I | Amp, Van, Pen, Gent = R | R | S | Amp, Van, Pen, Gent = S | Amp, Van, Pen, Gent = S | I | R | I | ≤ 8 | ≥ 64 | high levels of resistance | > 64 | low levels of vancomycin-resistance | ≤ 8 | ≥ 64 | variable vancomycin-resistance
3 | Gentamycin | S | Amp, Van, Pen, Gent = R | S | S | Amp, Van, Pen, Gent = S | Amp, Van, Pen, Gent = S | S | I | S | – | – | – | – | – | – | – | –
4 | Pennicillin | S | Amp, Van, Pen, Gent = R | R | R | Amp, Van, Pen, Gent = S | Amp, Van, Pen, Gent = S | S | R | S | – | – | – | – | – | – | – | –
5 | teicoplanin | – | – | – | – | – | – | – | – | – | – | – | high levels of resistance | – | susceptible | – | – | susceptible

Source: patent US7074598B2, “Detection of vancomycin-resistant enterococcus spp” (Mayo Foundation for Medical Education and Research, priority 2002, dated 2006)
